Tests used:
[1] = Intrinsic clearance per 10^6 cells in human hepatocytes; format: ADME, cell-based, Liver, Hepatocyte
CYP2C19 = CYP2C19 (Homo sapiens, UniProt P33261); assay: Inhibition of CYP2C19 at 10 uM; format: ADME
CYP2D6 = CYP2D6 (Homo sapiens, UniProt P10635); assay: Inhibition of CYP2D6 at 10 uM; format: ADME
CYP3A4 = CYP3A4 (Homo sapiens, UniProt P08684); assay: Inhibition of CYP3A4 at 10 uM; format: ADME
[2] = target: T1, Alpha-1B adrenergic receptor (Homo sapiens, UniProt P35368); assay: Agonist activity at human cloned adrenergic alpha-1B receptor expressed in CHO cells assessed as calcium mobilization by FLIPR; format: functional, cell-based
T1 sequence (P35368 whole entry): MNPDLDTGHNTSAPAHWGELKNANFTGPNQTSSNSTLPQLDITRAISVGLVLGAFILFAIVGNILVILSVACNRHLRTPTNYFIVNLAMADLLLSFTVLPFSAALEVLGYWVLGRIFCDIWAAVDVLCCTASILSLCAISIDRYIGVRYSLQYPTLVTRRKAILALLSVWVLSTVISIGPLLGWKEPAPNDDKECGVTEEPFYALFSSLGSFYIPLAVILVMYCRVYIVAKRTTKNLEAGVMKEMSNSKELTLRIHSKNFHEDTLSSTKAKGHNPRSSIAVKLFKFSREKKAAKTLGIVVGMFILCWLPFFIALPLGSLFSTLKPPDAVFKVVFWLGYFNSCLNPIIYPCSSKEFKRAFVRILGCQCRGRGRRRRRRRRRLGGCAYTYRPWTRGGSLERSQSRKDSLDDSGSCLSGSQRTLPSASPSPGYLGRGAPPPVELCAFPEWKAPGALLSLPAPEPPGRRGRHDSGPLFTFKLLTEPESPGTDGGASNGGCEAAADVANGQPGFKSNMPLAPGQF

[3] = target: Voltage-gated inwardly rectifying potassium channel KCNH2 (Homo sapiens, UniProt Q12809); assay: Activity at human ERG at 10 uM
[4] = Intrinsic clearance in human liver microsomes; format: ADME, Microsome
[5] = target: T2, Alpha-1D adrenergic receptor (Homo sapiens, UniProt P25100); assay: Agonist activity at human cloned adrenergic Alpha-1D receptor expressed in CHO cells assessed as calcium mobilization by FLIPR; format: functional, cell-based
T2 sequence (P25100 whole entry): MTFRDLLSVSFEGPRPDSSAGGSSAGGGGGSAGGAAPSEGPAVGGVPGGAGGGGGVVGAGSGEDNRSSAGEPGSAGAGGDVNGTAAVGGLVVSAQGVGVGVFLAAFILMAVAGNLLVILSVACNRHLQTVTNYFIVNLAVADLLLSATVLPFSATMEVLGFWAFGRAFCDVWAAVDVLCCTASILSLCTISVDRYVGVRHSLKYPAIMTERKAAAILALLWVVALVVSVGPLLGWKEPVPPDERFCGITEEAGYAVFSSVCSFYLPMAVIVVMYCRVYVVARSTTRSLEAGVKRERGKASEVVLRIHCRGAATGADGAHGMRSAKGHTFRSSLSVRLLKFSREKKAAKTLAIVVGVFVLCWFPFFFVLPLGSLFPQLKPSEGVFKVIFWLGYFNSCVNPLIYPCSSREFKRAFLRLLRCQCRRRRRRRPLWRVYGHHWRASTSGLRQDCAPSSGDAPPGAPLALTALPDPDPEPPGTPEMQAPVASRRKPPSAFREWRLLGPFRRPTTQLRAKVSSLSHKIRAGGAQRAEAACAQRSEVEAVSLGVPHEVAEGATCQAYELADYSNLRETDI

[6] = target: T3, Alpha-1A adrenergic receptor (Homo sapiens) (UniProt P35348); assay: Agonist activity at human cloned adrenergic alpha-1A receptor expressed in CHO cells assessed as calcium mobilization by FLIPR relative to phenylephrine; format: functional, cell-based
T3 sequence (whole entry): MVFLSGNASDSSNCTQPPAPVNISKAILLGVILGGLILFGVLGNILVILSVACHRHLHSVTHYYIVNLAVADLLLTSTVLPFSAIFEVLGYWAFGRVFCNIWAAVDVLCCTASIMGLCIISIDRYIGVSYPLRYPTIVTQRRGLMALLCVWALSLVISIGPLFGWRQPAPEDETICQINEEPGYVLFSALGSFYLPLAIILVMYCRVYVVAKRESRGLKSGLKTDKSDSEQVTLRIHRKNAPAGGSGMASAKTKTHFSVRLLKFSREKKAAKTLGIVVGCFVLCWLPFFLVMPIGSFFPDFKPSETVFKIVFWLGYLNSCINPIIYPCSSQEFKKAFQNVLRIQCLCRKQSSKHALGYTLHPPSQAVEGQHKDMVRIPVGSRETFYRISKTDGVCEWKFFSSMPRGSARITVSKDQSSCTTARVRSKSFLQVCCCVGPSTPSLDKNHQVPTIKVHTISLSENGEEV

[7] = target: T4, Alpha-2A adrenergic receptor (Homo sapiens, UniProt P08913); assay: Agonist activity at human cloned adrenergic alpha-2A receptor expressed in CHOK1 cells by beta-lactamase reporter gene assay; format: functional, cell-based, CHO-K1
T4 sequence (P08913 whole entry): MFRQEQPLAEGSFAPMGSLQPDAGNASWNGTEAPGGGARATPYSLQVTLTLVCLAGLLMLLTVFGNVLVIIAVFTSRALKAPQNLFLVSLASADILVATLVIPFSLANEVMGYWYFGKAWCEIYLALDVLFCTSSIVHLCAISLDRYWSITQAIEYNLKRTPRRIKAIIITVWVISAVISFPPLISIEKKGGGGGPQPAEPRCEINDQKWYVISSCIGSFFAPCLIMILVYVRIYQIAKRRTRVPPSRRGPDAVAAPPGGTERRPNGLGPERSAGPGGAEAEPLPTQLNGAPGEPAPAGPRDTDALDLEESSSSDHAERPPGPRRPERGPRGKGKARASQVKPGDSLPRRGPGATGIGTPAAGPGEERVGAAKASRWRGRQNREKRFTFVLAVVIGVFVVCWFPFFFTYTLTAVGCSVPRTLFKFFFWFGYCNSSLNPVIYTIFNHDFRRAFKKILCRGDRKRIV

[8] = target: T5, Alpha-1A adrenergic receptor (Homo sapiens, UniProt P35348); assay: Agonist activity at human cloned adrenergic alpha-1A receptor expressed in CHO cells assessed as calcium mobilization by FLIPR; format: functional, cell-based
T5 sequence (P35348 whole entry): T3 sequence (whole entry)

CYP2C9 = CYP2C9 (Homo sapiens, UniProt P11712); assay: Inhibition of CYP2C9 at 10 uM; format: ADME
[9] = Partition coefficient, log D at pH 7.4; format: physicochemical; settings: octanol/water

CYP3A4, sequence (P08684 whole entry): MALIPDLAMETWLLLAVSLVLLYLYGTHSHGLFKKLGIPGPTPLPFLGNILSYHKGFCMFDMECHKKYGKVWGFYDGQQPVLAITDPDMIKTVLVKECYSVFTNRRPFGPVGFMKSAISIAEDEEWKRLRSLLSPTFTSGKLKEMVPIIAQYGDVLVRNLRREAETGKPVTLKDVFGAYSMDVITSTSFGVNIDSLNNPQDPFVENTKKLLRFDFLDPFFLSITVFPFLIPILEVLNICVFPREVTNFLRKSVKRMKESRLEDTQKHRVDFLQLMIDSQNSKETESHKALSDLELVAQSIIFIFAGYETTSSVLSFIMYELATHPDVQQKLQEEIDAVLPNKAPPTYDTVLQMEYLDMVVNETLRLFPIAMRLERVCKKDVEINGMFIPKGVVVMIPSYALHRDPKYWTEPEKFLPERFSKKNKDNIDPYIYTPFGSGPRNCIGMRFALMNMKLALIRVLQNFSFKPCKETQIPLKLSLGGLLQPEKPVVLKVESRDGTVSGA
CYP2D6, sequence (P10635 whole entry): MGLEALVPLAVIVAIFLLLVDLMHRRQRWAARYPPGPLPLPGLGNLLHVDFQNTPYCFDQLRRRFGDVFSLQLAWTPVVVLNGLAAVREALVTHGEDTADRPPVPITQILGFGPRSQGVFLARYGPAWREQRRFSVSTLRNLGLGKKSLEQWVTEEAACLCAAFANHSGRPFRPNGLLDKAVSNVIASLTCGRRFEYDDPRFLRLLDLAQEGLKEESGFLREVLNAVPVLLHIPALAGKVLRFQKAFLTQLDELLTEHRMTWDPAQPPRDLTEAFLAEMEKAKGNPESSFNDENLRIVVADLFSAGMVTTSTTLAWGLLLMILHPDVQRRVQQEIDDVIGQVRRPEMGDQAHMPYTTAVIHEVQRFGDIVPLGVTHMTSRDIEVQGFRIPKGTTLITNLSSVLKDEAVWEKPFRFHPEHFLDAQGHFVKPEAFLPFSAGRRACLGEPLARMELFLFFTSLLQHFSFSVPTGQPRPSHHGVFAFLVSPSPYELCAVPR
CYP2C9, sequence (P11712 whole entry): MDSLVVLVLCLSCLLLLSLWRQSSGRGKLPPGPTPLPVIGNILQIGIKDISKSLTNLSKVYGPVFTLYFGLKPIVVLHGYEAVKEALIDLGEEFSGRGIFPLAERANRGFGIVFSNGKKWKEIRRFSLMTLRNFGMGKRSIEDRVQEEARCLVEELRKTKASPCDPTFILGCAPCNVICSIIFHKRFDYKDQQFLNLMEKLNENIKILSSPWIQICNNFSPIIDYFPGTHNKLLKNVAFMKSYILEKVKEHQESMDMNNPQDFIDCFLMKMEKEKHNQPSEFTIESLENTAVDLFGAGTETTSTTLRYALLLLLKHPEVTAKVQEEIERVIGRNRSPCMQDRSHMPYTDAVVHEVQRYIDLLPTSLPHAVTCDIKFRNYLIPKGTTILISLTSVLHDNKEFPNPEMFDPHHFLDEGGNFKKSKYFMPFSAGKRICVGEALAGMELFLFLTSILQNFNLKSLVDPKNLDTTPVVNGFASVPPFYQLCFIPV
CYP2C19, sequence (P33261 whole entry): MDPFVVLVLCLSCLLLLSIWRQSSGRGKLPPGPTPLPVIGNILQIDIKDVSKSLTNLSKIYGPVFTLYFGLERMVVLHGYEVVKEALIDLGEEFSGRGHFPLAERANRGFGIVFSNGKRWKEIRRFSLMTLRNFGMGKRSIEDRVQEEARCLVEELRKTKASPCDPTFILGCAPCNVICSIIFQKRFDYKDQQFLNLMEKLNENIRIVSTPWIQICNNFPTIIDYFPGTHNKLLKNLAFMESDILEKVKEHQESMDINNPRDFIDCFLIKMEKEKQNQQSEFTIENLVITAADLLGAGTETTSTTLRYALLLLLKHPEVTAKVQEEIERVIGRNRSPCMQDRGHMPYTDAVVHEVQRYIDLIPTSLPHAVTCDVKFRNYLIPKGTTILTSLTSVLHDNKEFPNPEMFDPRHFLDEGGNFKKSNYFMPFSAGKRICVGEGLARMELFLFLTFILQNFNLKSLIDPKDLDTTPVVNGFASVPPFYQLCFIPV
Voltage-gated inwardly rectifying potassium channel KCNH2, sequence (Q12809 whole entry): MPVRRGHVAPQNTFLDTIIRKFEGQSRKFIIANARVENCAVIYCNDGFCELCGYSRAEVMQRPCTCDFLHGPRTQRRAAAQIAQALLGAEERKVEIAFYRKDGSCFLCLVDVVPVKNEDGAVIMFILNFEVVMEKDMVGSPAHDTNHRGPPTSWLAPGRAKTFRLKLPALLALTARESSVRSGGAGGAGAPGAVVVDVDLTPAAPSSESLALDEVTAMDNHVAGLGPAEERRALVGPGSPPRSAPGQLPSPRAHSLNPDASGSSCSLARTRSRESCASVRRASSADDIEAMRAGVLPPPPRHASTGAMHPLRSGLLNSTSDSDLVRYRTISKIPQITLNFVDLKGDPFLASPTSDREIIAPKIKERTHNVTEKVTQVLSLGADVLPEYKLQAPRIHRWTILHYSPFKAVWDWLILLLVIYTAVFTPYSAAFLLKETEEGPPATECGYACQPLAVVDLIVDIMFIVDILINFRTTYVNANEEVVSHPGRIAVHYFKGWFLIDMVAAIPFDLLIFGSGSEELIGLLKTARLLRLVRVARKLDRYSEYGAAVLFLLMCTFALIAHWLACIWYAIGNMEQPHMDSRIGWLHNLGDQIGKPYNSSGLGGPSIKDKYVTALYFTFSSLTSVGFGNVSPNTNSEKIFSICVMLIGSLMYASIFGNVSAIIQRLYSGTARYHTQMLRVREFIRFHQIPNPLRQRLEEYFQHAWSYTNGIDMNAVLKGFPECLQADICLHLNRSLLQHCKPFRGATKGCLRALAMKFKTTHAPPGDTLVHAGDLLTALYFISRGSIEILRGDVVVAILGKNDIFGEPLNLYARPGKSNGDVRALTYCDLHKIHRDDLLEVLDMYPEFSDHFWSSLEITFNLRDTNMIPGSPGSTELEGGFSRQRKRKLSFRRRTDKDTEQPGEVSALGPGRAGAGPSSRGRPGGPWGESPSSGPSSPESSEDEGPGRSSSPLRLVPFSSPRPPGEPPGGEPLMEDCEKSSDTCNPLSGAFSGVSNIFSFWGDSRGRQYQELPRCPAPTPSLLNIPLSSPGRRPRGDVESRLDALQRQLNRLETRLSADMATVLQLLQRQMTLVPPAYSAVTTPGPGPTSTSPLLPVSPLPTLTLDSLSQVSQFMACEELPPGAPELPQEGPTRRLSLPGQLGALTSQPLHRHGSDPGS

Question: With `CS(=O)(=O)Nc1c(Cl)ccc2c1CCCC2c1ncc[nH]1` (stereo not drawn) as the compound, how does the hepatocyte CLint [1] read?
Answer: The hepatocyte CLint was less than 5 µL/min/1e6 cells.

Question: What about the inhibition at 10 µM (CYP2C19) of the same compound?
Answer: Its inhibition at 10 µM is less than 25%.

Question: And the inhibition at 10 µM (CYP2D6)?
Answer: The inhibition at 10 µM was less than 25%.

Question: And the inhibition at 10 µM (CYP3A4)?
Answer: The inhibition at 10 µM was less than 25%.

Question: What about the EC50 [2] of the same compound?
Answer: The EC50 was greater than 10 µM.

Question: And the Activity [3]?
Answer: The Activity was 0%.

Question: And the microsomal CLint [4]?
Answer: Its microsomal CLint is less than 7 µL/min/mg.

Question: What about the EC50 [5] of the same compound?
Answer: Its EC50 is greater than 10 µM.

Question: What about the Emax [6] of the same compound?
Answer: The Emax was 61%.

Question: What about the EC50 [7] of the same compound?
Answer: The EC50 was greater than 10 µM.

Question: And the EC50 [8]?
Answer: The EC50 was 0.043 µM.

Question: And the inhibition at 10 µM (CYP2C9)?
Answer: The inhibition at 10 µM was less than 25%.

Question: And the logD [9]?
Answer: Its logD is 1.5.

From ChEMBL document CHEMBL1145605, “Novel 2-imidazoles as potent and selective alpha1A adrenoceptor partial agonists” (Bioorg Med Chem Lett, 2008)
